For orientation: stoichiometry N means the number of molecules, sites or subunits per partner or assembly.

For one data set, the target named is T1, intact PaBqsS (Pseudomonas aeruginosa, UniProt Q9I0I2).
T1 construct: gene carS
The note with it: 5.0 mM Mg2+, 37 °C, SEC buffer pH 7.5, Fos-Chol-14; no added Fe2+.

Data set [1] concerns the molecule itself. Briefly: SEC; cleaved, purified PaBqsS in detergent (Fos-Chol-14, also glyco-diosgenin (GDN)); HiLoad 16/600 Superose 6 pg; 50 mM Tris pH 7.5, 100 mM NaCl, 1 mM TCEP, 5% glycerol, 0.02% Fos-Chol-14. (SEC sorts molecules by how far they enter the pores of the column.)

Consider `Nc1ncnc2c1ncn2[C@@H]1O[C@H](COP(=O)(O)OP(=O)(O)OP(=O)(O)O)[C@@H](O)[C@H]1O` [ATP], for which the specific activity entry on intact PaBqsS was “We then tested the ATPase activity of intact PaBqsS purified in Fos-Chol-14”.

B1: Pseudomonas aeruginosa membrane histidine kinase BqsS/CarS, intact (enzyme)
chain: MRSIQRRLSVGLFAVLLVVGLVLAQTGLWLFDQGLRRYFAGNLREEAENLLVAMVRGPNGMQLDEQRLNPAFQRPYSGRYFVIELEKDTWRSRSLWDSELEVPHKKGLVQGLVDGPEEQRLLVFRGHYKRMGQKLRIVVAQDYTPILESFARVQWMGLGAGALALLLVLLLQRLTVRRSLRPLEEVRLQIAQLQQGQRSQLDNQAPEELEPLVEQINHLLAHTEETLKRSRNALGNLGHALKTPLAVLVSLAEREEMARQPELQQVLREQLEQIQQRLGRELGKARLVGEALPGAHFDCAEELPSLCDTLRLIHGPHLQVSWSAPPGLRLPWDREDLLEMLGNLLDNACKWADSEVRLTVAQGEGMVRLKVDDDGPGILPDQRQAVLERGTRLDEQVSGHGLGLGIARDIAEACGGRLSLEDSPLGGLRVSVELPLQKSGRAARA
notes: also called PaBqsS; intact PaBqsS; source: E. coli BL21 (DE3), membranes solubilized in detergent (Fos-Chol-14), purified (IMAC, TEV cleavage, second IMAC, SEC)
Take B1: the “stoichiometry N” value in data set [1] was 2.

Values taken from paper PMC12666569, “The Pseudomonas aeruginosa membrane histidine kinase BqsS/CarS directly senses environmental ferrous iron (Fe^2+)” (The Journal of Biological Chemistry, 2025).
